Data taken from patent US20090232762A1, “COMPOSITIONS FOR DELIVERY OF THERAPEUTIC AGENTS” (priority 2008, published 2009).
Read-outs that look alike come from different tables or passages of the source.

Assays:
[1] = molecular target: T1, yCD (Saccharomyces cerevisiae, UniProt Q12178); test: Enzyme activity of yCD (His tag cleaved); type: biochemical, S. cerevisiae
T1 construct: The resulting 474 bp gene was subcloned into pET-15b; histidine tag (pET-15b) (N, cleaved yes); made in house; host or cells: E. coli BL21(DE3)
Procedure: (§1) The S. cerevisiae yeast cytosine deaminase (yCD) enzyme was cloned and expressed. The resulting 474 bp gene was subcloned into pET-15b to facilitate purification of the protein via a fused histidine tag and transformed into competent BL21(DE3) cells for protein expression. An estimate of about 25-30 mg of pure yCD-His was collected from a 1-liter culture. Thrombin cleavage of the histidine tag on yCD-His was achieved by incubating the protein for 2 hours at 23° C. in thrombin cleavage buffer. Enzyme activity characteristics for yCD and yCD-His was investigated using both the prodrug 5FC and the enzyme's natural substrate, the DNA base cytosine. Five-FC turnover rates remained within 10^5 M^−1·s^−1 (Table 1) for both proteins (see E. Kievit et al. Cancer Res. 2000, 60:6649-6655). The diffusion controlled limit for extremely efficient enzymes and their substrates in solution is in the range 10^8-10^9 M^−1·s^−1, therefore it was concluded that yCD was a very efficient pretargeting enzyme for catalyzing 5FC to 5FU conversion, especially applicable to GDEPT.

[2] = molecular target: T2, yCD-His (Saccharomyces cerevisiae, UniProt Q12178); test: Enzyme activity of yCD-His (substrate turnover); type: biochemical, S. cerevisiae
T2 construct: The resulting 474 bp gene was subcloned into pET-15b; made in house; host or cells: E. coli BL21(DE3)
Procedure: as §1

[3] = cited from earlier work; for LogP (Drug): drug named
[4] = system: MDA-MB-231; test: 5FU toxicity in MDA-MB-231 (drug concentration vs. % cell death, Hill-Slope fit); type: cell-based; settings: Homo sapiens; MDA-MB-231, % cell death, Hill-Slope curve fit
[5] = system: MDA-MB-231; settings: reported on the National Cancer Institute website; cited from earlier work

T1 sequence (Q12178 whole entry): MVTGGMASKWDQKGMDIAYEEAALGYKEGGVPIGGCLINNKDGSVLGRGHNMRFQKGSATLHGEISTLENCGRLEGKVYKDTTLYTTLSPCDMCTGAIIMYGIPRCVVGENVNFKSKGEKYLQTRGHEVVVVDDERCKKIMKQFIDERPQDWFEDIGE
T2 sequence (Q12178 whole entry): as above

kcat [1] | kcat [2] | SMILES | LogP (Drug) [3] | also measured
448 s⁻¹ | 315 s⁻¹ | Nc1nc(=O)[nH]cc1F [5-FC, 5-fluorocytosine] | – | LogP (Prodrug) ([3]; prodrug column): −1.79
– | – | O=c1[nH]cc(F)c(=O)[nH]1 [5-FU, 5-fluorouracil] | −2.17 | IC50 [4]: 2900 nM; IC50 [5]: 900 nM
741 s⁻¹ | 607 s⁻¹ | Nc1cc[nH]c(=O)n1 [Cytosine, cytosine] | – | –
– | – | COc1cccc2c1C(=O)c1c(O)c3c(c(O)c1C2=O)C[C@@](O)(C(=O)CO)C[C@@H]3O[C@H]1C[C@H](N)[C@H](O)[C@H](C)O1 [DOX, doxorubicin] | +0.36 | –
– | – | CCc1c2c(nc3ccc(O)cc13)-c1cc3c(c(=O)n1C2)COC(=O)[C@]3(O)CC [SN-38, 7-ethyl-10-hydroxycamptothecin] | +2.02 | –
